Assay results from US20230032934A1, “METHOD OF PRODUCING TUMOR-REACTIVE T CELL COMPOSITION USING MODULATORY AGENTS” (Myst Therapeutics, LLC, priority 2019, published 2023).
Entries after “also recorded” stand apart in the source; their conditions may differ. Where a SMILES comes first, the peptide text is derived from it. The star is where a group is joined. Cbz = O=C(OCc1ccccc1)*; CH2F = FC*

What was measured:
[1] = test system: CRC tumor fragment or SCS cultures; test: Caspase inhibition in tumor processing (tumor fragment and SCS cultures); format: cell-based, human; conditions: 2 μM replenished at each media exchange
Method: Half of cultures contained media additionally supplemented with 2 μM of pan-caspase inhibitor Z-VAD-FMK which was replenished at each media exchange. Cultures were incubated at about 37° C. for a minimum of 18 days with a 50% medium exchange occurring every 2-3 days following culture day 5. Cell counts were performed on day 5 and at each medium exchange using the NC-200 Automated Cell Counter (ChemoMetec).

[2] = test system: expanded human T cells from three healthy donors; test: Effect of T cell adjuvants on T cell viability (total viable CD3+ cell count, with and without OKT3); format: cell-based; conditions: 10 μg/mL for antibodies, 25 μM for Z-VAD-FMK; 6 days; irrespective of activation status
Method: Cells were expanded from PBMC derived from Ficoll gradient separation from three healthy donor's apheresis material. […] Because the studies were carried out in healthy donors, stimulation of the T cells was carried out with anti-CD3 (OKT3) stimulation in order to mimic conditions present in the tumor microenvironment (TME).
Cells were next seeded into gas permeable 100M culture vessels and expanded for 7-14 days to achieve a large bank of T cells, and cryopreserved. […] Half of wells were additionally supplemented with 50 ng/mL OKT3, a human anti-CD3 monoclonal antibody. In total, 15 test adjuvant agents were tested for their impact on cell viability in the presence and absence of anti-CD3 activation (see Table E3). Cells were cultured for 6 days total, including a 50% medium exchange on culture day 3, and monitored for total viable CD3+ cell count.
Total viable CD3+ cell count for cells grown in the absence and presence of OKT3 stimulation are shown in FIGS. 27A-C and FIGS. 28A-C, respectively. The results shown are for the following concentrations of adjuvant: 10 μg/mL for tested antibodies (Tavolixizumab, Oxelumab, Ipilimumab, Tocilizumab, Urelumab, Pembrolizumab, Varlilumab, anti-GITR MK-1248, anto-human FasL); 25 μM for Z-VAD-FMK pan-caspase inhibitor; 250 nM for HSP inhibitor NVP-HSP990; and 1000 IU/mL for cytokine (IL-7, IL-15, IL-21, IL-23, IL-25, IL-27, or IL-35)).

[3] = test system: PBMC from two healthy donors; test: T cell expansion with FasL blockade or caspase inhibition, anti-CD3/anti-CD28 bead stimulation (transient or continuous activation); format: cell-based, human
Method: Cells were then seeded into a 24-well gas permeable cell culture plate at a density of 1.5×10^5 cells/mL (5.0×10^5 cells/cm^2).
Culture wells were assigned to one of two treatment groups, transient or continuous activation. For transient activation, anti-CD3/anti-CD28 paramagnetic beads (Dyanbeads™) were added to the culture media at a ratio of 1 bead per cell starting on culture day 0, and then were removed during media exchange on day 2. For continuous activation, anti-CD3/anti-CD28 paramagnetic beads (Dyanbeads™) were added to the culture media at a ratio of 1 bead per cell starting on culture day 0, and then added again on Day 4, and again on Day 6 at a ratio of 1 bead per cell. The anti-CD3/anti-CD28 paramagnetic beads were not removed on Day 2, 4 or 6.
For both the continuous and transient activation, culture wells were assigned to one of five treatment groups as described above for 10 conditions total per donor.
Cell counts and viability were monitored every other day. When cells reached 3×10^6 cells/ml, 1.5×10^6 cells were sub-cultured into a new well of a 24-well gas permeable culture plate with 7 mL final volume of medium and the culture continued as described above.

[4] = test system: PBMC from three healthy donors; test: T cell expansion with FasL blockade or caspase inhibition, anti-CD3 (OKT3) stimulation; format: cell-based, human; conditions: OKT3 activation; agent replenished at each media exchange (continuous); 2 μM Z-VAD-FMK or 500 ng/ml NOK-1
Method: Apoptotic inhibitors directed against Fas- and caspase-mediated pathways were assessed to determine effects on tumor reactive T cells during manufacturing. The studies were carried out in healthy donors, and thus, stimulation of the T cells were carried out with anti-CD3 (OKT3) or anti-CD3/anti-CD28 stimulation in order to mimic conditions present in the tumor microenvironment (TME). Constant activation signals present in the tumor microenvironment, as can be stimulated by anti-CD3 or anti-CD3/anti-CD28 activation can be detrimental to T cell growth. Cellular viability and projected cell numbers were used to compare the impact of modulation of apoptotic pathways in both a transient and a continuous activation assay, the latter of which more closely recapitulates the tumor microenvironment.
Cells were then seeded into a 24-well gas permeable cell culture plate at a density of 2.14×10^5 cells/mL (7.5×10^5 cells/cm^2). Cells were activated for 48 hours using 50 ng/ml OKT3, a human anti-CD3 monoclonal antibody, and were additionally treated with agents as described below. […]
Cultures were maintained for at least 13 days with a 50% media exchange every other day beginning on culture day 2. Cell counts and viability were monitored every other day. […]

[5] = test system: expanded human T cells from three healthy donors; test: Cytokines, modulators and agonist antibodies with IL-2 on T cell number and naive/central memory phenotype; format: cell-based
Method: PBMC from three healthy donors were activated, expanded, and cryopreserved as described in Example 11. […] As previously described, stimulation of the healthy donor T cells prior to cryopreservation were carried out with anti-CD3 (OKT3) stimulation in order to mimic conditions present in the tumor microenvironment (TME).
Cells were next seeded into gas permeable 100M culture vessels and expanded for 7-14 days to achieve a large bank of T cells, and cryopreserved.
Cells were maintained in culture for 6 days, with a 50% medium exchange occurring at 3 days post culture initiation.
At the end of the culture period for all culture conditions, cells were assessed for cell count and sub-phenotypes of naïve and central memory T cells by flow cytometry by staining with CD45RA and CCR7 (naïve, CD45RA+ CCR7+; “central” memory, CD45RA− CCR7+).

[6] = test system: T-cells from three healthy donors; test: Activation markers on CD4+ and CD8+ T cells after OKT3 activation, flow cytometry; format: cell-based, human; conditions: 50 ng/mL OKT3 vs no OKT3; 3-48 hours
Method: Specific markers of activation on the CD4+ and CD8+ cell populations were measured using flow cytometry over a time course of 3-48 hours. Specifically, the following markers were assessed: CD38 and CD39 (FIG. 12A and FIG. 13A), CD134 and CD137 (FIG. 12B and FIG. 13B), and CD69 and CD90 (FIG. 12C and FIG. 13C).

[7] = test system: cells processed from melanoma tumor fragments; test: Anti-CD3 (OKT3) stimulation on expansion of melanoma tumor-derived cells; format: cell-based, human
Method: Cells processed from melanoma tumor fragments as described in Examples 1 and 2, were cultured in the presence or absence of 50 ng/mL OKT3, a human anti-CD3 monoclonal antibody. Cell cultures were carried out to between 14 and 31 days, such as between 14 and 21 days, in either a conventional 6-well plate or a gas permeable culture plate with RPMI or OpTmizer media. […] About 50% of cellular media was exchanged every other day beginning on the 5th day of culture as described previously. Cells were then counted using the NC-200 Automated Cell Counter (Chemometec).

Compound	cell viability ([1]; SCS culture)	outgrowth of T cells ([1]; SCS culture)	cell viability ([1]; tumor fragment-derived culture)	outgrowth of cells (fold expansion, total viable cells) ([1]; tumor fragment-derived culture)	viable cell counts versus DMSO treatment control [2]	total viable cell number and viability ([3]; agent continuous, listed as caspase inhibitor)	total viable cell number and viability ([3]; agent transient (day 0 only))	cell growth (total cell number) [4]	percent of naïve and central memory T cells compared to IL-2 alone ([5]; 0.2 μg/mL-50 μg/mL, Day 6)	CD3+ cells/mL on Day 6 compared to IL-2 alone ([5]; concentrations higher than 0.2 μg/mL)	upregulation of activation markers CD38, CD39, CD134, CD137, CD69, CD90 on CD4+ T cells [6]	upregulation of activation markers CD38, CD39, CD134, CD137, CD69, CD90 on CD8+ T cells [6]	total cell number and fold expansion ([7]; 50 ng/mL OKT3 vs no OKT3, with 300 or 6000 IU/mL IL-2, 14-31 days)	fold expansion ([7]; Donor 6, presence or absence of anti-CD3 stimulation, all conditions)
COC(=O)C[C@H](NC(=O)[C@H](C)NC(=O)[C@@H](NC(=O)OCc1ccccc1)C(C)C)C(=O)CF [Z-VAD-FMK, carbobenzoxy-valyl-alanyl-aspartyl-[O-methyl]-fluoromethylketone] (Cbz-Val-Ala-Asp(OMe)-CH2F)	similarly high	not observed	also high	superior	consistently higher viable cell counts	outperformed the other conditions; also recorded: outperforming the transient condition	outperformed the other conditions	greatest cell growth	no effect	substantially increased				
OKT3: a human anti-CD3 monoclonal antibody											all assessed markers were upregulated to some extent	all assessed markers were upregulated to some extent	did not substantially impact; also recorded: largely similar	2-4 fold
